Assay results as given in patent US5852017A, “2,3(1H,4H)-quinoxalinediones” (BASF Aktiengesellschaft, priority 1992, dated 1998).

Key:
[1] = molecular target: NMDA (N-methyl-D-aspartate) receptors; assay: Binding of 3H-5,7-dichlorokynurenic acid to rat cerebra membrane material; conditions: displacement of 3H-5,7-dichlorokynurenic acid, membrane material from rat cerebra, incubated on ice for 30 minutes
Method: (§1) The pharmacological activity of the compounds I and I' according to the invention was investigated on membrane material isolated from rat cerebra. To do this, the membrane material was treated in the presence of the compounds according to the invention with the radio-labeled substances ^3 H-2-amino-3-hydroxy-5-methyl-4-isoxazolepropionic acid (^3 H-AMPA) and ^3 H-5,7-dichlorokynurenic acid, which bind to specific receptors (AMPA and NMDA (N-methyl-D-aspartate) receptors respectively). The radioactivity of the treated membranes was then measured by scintillation counting. The amounts of bound ^3 H-AMPA and ^3 H-5,7-dichlorokynurenic acid, or the amounts of these radiolabeled substances displaced in each case, can be determined from the bound radioactivity. The resulting dissociation constant KI (I=inhibitor), which is a measure of the displacement by the active substance according to the invention, was calculated by iterative non-linear regression analysis with the statistical analysis system (SAS) on an IBM computer, similar to the "Ligand" program of P. J. Munson and D. Rodbard (Analytical Biochem. 107, (1980) 220, Ligand: Versatile Computerized Approach for Characterization of Ligand Binding Systems).
2. Binding of ^3 H-5,7-dichlorokynurenic acid […]

AMPA receptors = assay: Binding of 3H-AMPA to rat cerebra membrane material; conditions: displacement of 3H-AMPA, membrane material from rat cerebra, incubated on ice for 60 minutes
Method: as §1
1. Binding of ^3 H-2-amino-3-hydroxy-5-methyl-4-isoxazolepropionic acid (^3 H-AMPA) […]

Compound	Ki [1] [µM]	Ki (AMPA receptors) [µM]
O=c1[nH]c2cc(-n3cccc3)c(C(F)(F)F)cc2[nH]c1=O [Example 2, 6-(1-Pyrrolyl)-7-trifluoromethyl-2,3(1H,4H)-quinoxalinedione]	< 10	–
O=c1[nH]c2cc(Cl)c(-n3cccc3)cc2[nH]c1=O [Example 1, 7-Chloro-6-(1-pyrrolyl)-2,3(1H,4H)-quinoxalinedione]	–	< 10
